Results reported in US20190183100A1, “ANIMAL MODELS FOR POLYCYSTIC KIDNEY DISEASE” (Recombinetics, Inc., priority 2017, published 2019).

Columns and labels:
porcine PKHD1 [1] = assay: Cytoplasmic injection of parthenogenetic pig embryos, single blastocyst RFLP assay and sequencing; assay type: cell-based; conditions: for NHEJ n (%): R3229Q introgression; for RFLP In Embryos: pig embryos, with HDR template
Method: The best performing combinations of TALENs and CRISPRs identified above, are evaluated in vitro by injection of in vitro matured (IVM) parthenogenetic pig embryos (FIG. 9C). […] In a small pilot study targeting porcine PDX1, 80% of alleles injected with a TALEN dosage of 40 ng/μl were able to be mutated, with nearly half of those directed to a particular edit by a homology template (FIG. 11B). FIG. 11A illustrates the steps required in production of in vitro matured pig embryos for microinjection. FIG. 11B illustrates the difference in percent success which using different concentrations of editing reagents for the PDX1 gene. A similar dosage escalation study is used to optimize for T36M introgression that balances survival of embryos in vitro with editing efficiency.
HDR efficiency was inversely associated with Cas9 dosage (50 vs 80% HDR) from highest to lowest concentration (Table 12 and FIG. 13A) likely a result of hyperactive cutting in the high concentration group. The fidelity of HDR events was further confirmed by sequencing (FIG. 13B) which confirms that the wild type triplet “ACA” coding, for threonine has been converted to “ATG” coding for methionine (FIG. 9A) using the template HDR sequence. Overall, condition C3, 25 ng/ul of Cas9, 12.5 ng/ul of gRNA and 50 ng/μl of ssHDR, was optimal for both blastocyst formation rate and HDR activity. If this site proves problematic, alternative missense mutations commonly observed in more than one family of ARPKD patients, such as I3553T, I222V, P805L or R3229Q are introgressed.
By the same process as Example 8, R3229Q was engineered into the PKHD1 gene. R3229Q is the equivalent mutation to R3240Q in humans (FIG. 16A), which in a homozygous state causes moderate ARPKD. Also, as noted previously, the annotation of PKHD1 has changed since initial contigs placed R3240Q in exon 58 versus exon 65. Also, R3240Q in humans, maps to different residue numbers in pigs based on transcript selected. […] Injections into parthenogenetic embryos were performed as before, with two conditions using a ssODN as the homology template ssPKHD1 65.1 3240 R to Q (Table 10); C1 (100/50/50) (Cas9 mRNA/gRNA65.1/homology template, all ng/μl) and C3 (25/12.5/50) (Cas9 mRNA/gRNA65.1/homology template, all ng/μl) (Table 9). […] HDR was also prevalent in the C3 condition (75%) whereas total mutation rate (indels+HDR alleles) was 100 and 95% for C1 and C3 respectively. […] Blastocyst 3.19 is homozygous for R3229Q while 3.12 has one HDR allele and one indel allele.

porcine PKHD1 [2] = assay: Surveyor assay (cutting) and RFLP analysis (HDR) in transfected pig fibroblasts; assay type: cell-based; conditions: for activity among the TALENs and CRISPR gRNAs tested for the target: comparison of reagents developed for the same target; for cutting, In Fibroblast Cells Incubated at 30° / RFLP, In Fibroblast Cells Incubated at 30° / cutting, In Fibroblast Cells Incubated at 37° / RFLP, In Fibroblast Cells Incubated at 37°: pig fibroblasts; for cutting, In Fibroblast Cells Incubated at 30° / RFLP, In Fibroblast Cells Incubated at 30°: 30 degrees C; for cutting, In Fibroblast Cells Incubated at 30° / cutting, In Fibroblast Cells Incubated at 37°: three days recovery, Surveyor assay; for RFLP, In Fibroblast Cells Incubated at 30° / RFLP, In Fibroblast Cells Incubated at 37°: with HDR template, RFLP assay; for cutting, In Fibroblast Cells Incubated at 37° / RFLP, In Fibroblast Cells Incubated at 37°: 37 degrees C
From the text: FIG. 12A, FIG. 12B: T36M introgression in cells. […] The region is highly conserved and threonine acid at position 36 in humans corresponds to residue 36 in pigs. Threonine acid 36 is identified in pig genomic DNA sequence, and […] (maroon arrow) are designed to cleave near T36. FIG. 12A also discloses SEQ ID NO: 118. […] It should be noted that position 3553 in pigs is a Valine residue and not pathogenic; henceforth this mutation will be referred to as either I3553T or V3553T. The cells were recovered for three days at 30 and 37 degrees C. prior to quantification of activity by the Surveyor assay and RFLP analysis with the Nsp1 restriction enzyme. The arrowheads depict the expected size of cleavage products for the Surveyor assay or RFLP assay.
A number of quality sites for TALENs and CRISPRs are ideally positioned for HDR mediated introgression the T36M mutation (Table 7, Table 8, Table 9). The assembled reagents are tested in pig fetal fibroblasts and embryos using standard operating procedures (SOPs) (FIG. 9B). Using these methods, hundreds of loci in pig and cattle have been successfully targeted, with efficiencies ranging from 5-75% in cultured cells.
For introgression of T36M into the porcine genome, two CRISPR Cas9 gRNAs and TALENs were tested in pig fibroblasts and embryos to optimize conditions (FIG. 12A, FIG. 12B, Table 7, Table 8, Table 9).

PKD1^FLEX-CreER2 = assay: Tamoxifen activation of PKD1^FLEX-CreER2 cassette in LLC-PK1 cells in vitro; assay type: cell-based, pig; conditions: after tamoxifen treatment, LLC-PK1 targeted cells, expected
Method: Testing of PKD1^FLEX-CreER2 is conducted using the immortalized pig kidney cell line, LLC-PK1. Prior to conducting studies with the cassette integrated into cells, the efficacy of Cre recombination is optimized in transient transfections +/− tamoxifen and measure recombination by qPCR.
In vitro testing in the LLC-PK1, PKD1^FLEX-CreER2 targeted cells: The model cells developed above are treated in triplicate with 3 dosages of tamoxifen, and compared to non-treated cells. Percent recombination of the PKD1^FLEX-CreER2 cassette is analyzed visually for the loss of EGFP using FACS and molecularly by quantitative PCR for molecular quantification of recombination. Splicing of the PKD1^FLEX-CreER2 cassette is analyzed before and after recombination by RT-PCR from exon 14 to exon 16, followed by Sanger sequencing and qRT-PCR using primers spanning exon junctions of E14-15 and E15-16 respectively. Finally, induced and non-induced populations are compared at the protein level by western blotting.

porcine PKHD1 [3] = assay: Injection of in vivo produced porcine embryos, genotype of born piglets; design: species or system pig; conditions: 22 piglets, litters 115 and 116, condition C3
Method: Founder animals for ARPKD were produced using the process of Example 8 with minor changes. The T36M reagents (ssPKHD1 CRISPR 3.1 and template ssPKHD1 3.1 36 T to M) were injected into in vivo produced porcine embryos at the 1 or 2 cell stage. Condition C3 was used for injection and the 60 resulting embryos were split equally between to synchronized recipients. A total of 22 piglets were born, 14 from one surrogate (litter ID 115) and 8 from the other (litter ID 116). Newborn piglets were visually assessed for fitness and four, 115-1, 115-2, 115-3 and 115-8 were reluctant to suckle from their mothers and had visible abdominal distension (Table 14). […] Each of the remaining piglets was analyzed for a visible phenotype at 20 days of age (Table 14). Genotype of the piglet was a strong indicator of disease severity as 115-1, 115-2, 115-3 and 115-8 are predicted to have null mutations on each allele while mild cases had some combination of T36M mutation or single allele mutations (Table 14). Overall, ˜55% of offspring were mutant with 5 showing T36M mutations (Table 15). This rate is lower than observed above. A key difference is the embryos source. Parthenogenetic embryos were used in previous experiments where timing of activation is tightly controlled. In contrast, this experiment used in vivo produced embryos (bred sows, embryos collected ˜18 hours post fertilization) where timing is variable. However, the hypothesis that a variety of disease alleles and severities could be produced in a single litter was confirmed.

[4] = C1 (100/50/50) ng/μl Cas9/gRNA/ssODN, T36M template
[5] = C2 (50/25/50) ng/μl Cas9/gRNA/ssODN, T36M template
[6] = C3 (25/12.5/50) ng/μl Cas9/gRNA/ssODN, T36M template

Row | Compound | RFLP In Embryos (porcine PKHD1 [1]) | activity among the TALENs and CRISPR gRNAs tested for the target (porcine PKHD1 [2]) | cutting, In Fibroblast Cells Incubated at 30° (porcine PKHD1 [2]) | RFLP, In Fibroblast Cells Incubated at 30° (porcine PKHD1 [2]) | cutting, In Fibroblast Cells Incubated at 37° (porcine PKHD1 [2]) | RFLP, In Fibroblast Cells Incubated at 37° (porcine PKHD1 [2]) | also measured
1 | ssPKHD1 CRISPR 65.1: CRISPR guide RNA (SEQ ID NO: 105) for R3229Q (human R3240Q) introgression into porcine PKHD1 (guide GGGGTCGAGTTGGTATATTGTGG; chemistry not given here) | 89% | greatest activity | Cutting detected, too | 7.3% RFLP | Cutting detected, too | 11% RFLP | NHEJ n (%) (porcine PKHD1 [1]; C1 (100/50/50) ng/μl): 2 (10.5%); NHEJ n (%) (porcine PKHD1 [1]; C3 (25/12.5/50) ng/μl): 4 (15.0%)
2 | CC/C(=C(\c1ccccc1)c1ccc(OCCN(C)C)cc1)c1ccccc1 [tamoxifen] |  |  |  |  |  |  | activation of the integrated PKD1^FLEX-CreER2 cassette (PKD1^FLEX-CreER2): > 80%
3 | ssPKHD1 CRISPR 3.1: CRISPR guide RNA (SEQ ID NO: 103) targeting exon 3 of porcine PKHD1, used with Cas9 mRNA and T36M HDR template (guide GGATTACCGTGTTCTTCGATGG; chemistry not given here) | 80% RFLP | greatest activity in cells | 0% cutting | RFLP detected, too | 30.8% cutting | RFLP 44.7% | Mutated n (%) (porcine PKHD1 [1]; [4]): 17 (94.4%); NHEJ^− n (%) (porcine PKHD1 [1]; [4]): 7 (38.8%); HDR^+ n (%) (porcine PKHD1 [1]; [5]): 11 (55.0%); Mutated n (%) (porcine PKHD1 [1]; [5]): 19 (95.0%); NHEJ^− n (%) (porcine PKHD1 [1]; [5]): 8 (40.0%); Mutated n (%) (porcine PKHD1 [1]; [6]): 19 (95.0%); NHEJ^− n (%) (porcine PKHD1 [1]; [6]): 3 (15.0%); embryos mutated (porcine PKHD1 [1]; CRISPR/Cas9 dosage of 25-100 ng/μl): Up to 95%; blastocyst formation rate (toxicity by embryo development analysis) (porcine PKHD1 [1]; cytoplasmic injection with HDR oligo at C1, C2, C3, highest in C3): high in each group; RFLP, In Fibroblast Cells Incubated at 37° (porcine PKHD1 [2]; listed as CRISPR 3.1): up to 44.7%; Heterozygous T36M % (number) (porcine PKHD1 [3]): 9% (2/22); Homozygous T36M % (number) (porcine PKHD1 [3]): 13.6% (3/22); Wild type % (number) (porcine PKHD1 [3]): 45.5% (10/22)
4 | ssPKHD1 CRISPR 3.2: CRISPR guide RNA (SEQ ID NO: 104) targeting exon 3 of porcine PKHD1 (guide GCAGCCTCGCAGGGGGAACATGG; chemistry not given here) | 0% RFLP |  | 0% cutting at 30 | RFLP detected, too | 0% cutting at 37 | RFLP detected, too | 
